According to a melting point compilation (Tetko et al.; mined from patent text by program, amines drawn as free bases though some values may be those of a salt):

Row | SMILES | melting point
1 | CC(=O)N(C(C)=O)C1=C(N2CCN(c3ccc(F)cc3)CC2)C(=O)c2ccccc2C1=O | 149 to 150 °C
2 | CC(C)Cc1cc(OCCc2ccsc2)c2[nH]nc(Nc3nccs3)c2c1 | 150 to 151 °C
3 | CSC12SCC(COC(C)=O)(OS(C)(=O)=O)C(C(=O)OCc3ccc([N+](=O)[O-])cc3)N1C(=O)C2N=[N+]=[N-] (stereo not given) | 147 °C
4 | CON=C(c1cc(C)on1)c1ccccc1COc1ncc(Cl)cc1C(F)(F)F | 120 to 121 °C
5 | NS(=O)(=O)c1ccc(-c2[nH]c3ccccc3c2-c2ccc(Cl)cc2)cc1 | 298 to 300 °C
6 | N#Cc1cccc(C2=NN(C(=O)Nc3ccc(OC(F)(F)F)cc3)CCC2n2cc(Cl)cn2)c1 (stereo not given) | 216 °C
7 | O=c1ncc(Cl)cn1COc1ccccc1 | 146 °C
8 | CCOC(=O)C(CC(=O)c1ccc(Oc2ccc(Br)cc2)cc1)SC(C)=O (stereo not given) | 67 to 68.5 °C
9 | COc1ccc(-n2c(Cl)ccc2-c2ccc(S(N)(=O)=O)cc2)cc1 | 119 to 120 °C
10 | COc1cc2c(Nc3ccc4cn[nH]c4c3)c(C#N)cnc2cc1OCCN(C)C | 218 to 219 °C
11 | CCN1c2ncc(CO)cc2C(=O)N(C)c2ccc(F)nc21 | 40 °C
12 | O=C(NCc1cccc(-c2nc(=O)c3ccccc3s2)n1)c1ccccc1 | 214 to 215 °C
13 | Cc1cc(-c2nnc3c4ccccc4c(OCc4cncn4C)nn23)no1 | 236 to 238 °C
14 | CC(=O)Nc1ccc(O)c(C(=O)C=Cc2ccccc2)c1 | 162 to 165 °C
15 | CCCS(=O)(=O)c1csc2c(=O)n([C@H](C)[C@](O)(Cn3cncn3)c3ccc(F)cc3F)cnc12 | 115 to 122 °C
16 | CN(C)C(=O)c1cccc2c1nc(-c1c(F)cccc1F)n2Cc1c(F)cccc1F | 213 to 214 °C
17 | CCC(CO)NC(=O)C(C)(C)c1ccc(-c2cccc(COC)c2)cc1 (stereo not given) | 73 to 75 °C
18 | CS(=O)C1(c2ccncc2)CNN=C1c1ccc(F)cc1 (stereo not given) | 263 °C
19 | NC(=O)c1cn(-c2ccccc2)nc1-c1ccc([N+](=O)[O-])o1 | 236 to 238 °C
20 | COc1ccc(CN2CCc3c(nc4ccc(OC)cc4c3-c3ccc(OC)cc3)C2=O)cc1 | 132 to 134 °C
21 | COC(=O)c1c(O)ccnc1C(F)(F)F | 78 to 82 °C
22 | Cc1cc2cc(CN3CCCC3)cnc2cc1NC(=O)c1ccc(-c2ccc3ccccc3c2)cc1 | 194 °C
23 | COc1ccnc(N2CCN(C(=O)c3cccs3)CC2)n1 | 143 to 145 °C
24 | Oc1ccc2c(ccn2-c2ccnc(N[C@H]3CC[C@H](O)CC3)n2)c1 | 246 to 248 °C

Row | SMILES | melting point
25 | CC(C)[Si](C(C)C)(C(C)C)C1c2ccccc2-c2ccccc21 | 122 to 123 °C
26 | NCCSc1nc(-c2ccccc2)c(-c2ccccc2)[nH]1 | 152 to 154 °C
27 | FC(F)(F)c1nc2cc(Cl)c(Cl)cc2[nH]1 | 225 to 230 °C
28 | COc1cc(-c2nc(N3CCOCC3)c3c(C)c(C#N)sc3n2)cc(OC)c1OC | > 250 °C
29 | O=C1C=C(NC(=O)C(=O)c2cn(Cc3cccc(Cl)c3)c3ccccc23)CO1 | 268 to 270 °C
30 | Cn1nc2c(-c3ccc(Cl)cc3Cl)cccc2c1C1=NCCO1 | 162 to 167 °C
31 | OC1(c2ccccc2Cc2ccccc2)CCN(CC2CC2)C1 (stereo not given) | 118 to 120 °C
32 | N=C(Nc1ccc(Cl)cc1)Nc1ncccc1OCc1cccc(Cl)c1F | 204 to 207 °C
33 | Cc1cccc(CN2CCCN(C)C(=O)[C@H]2NC(=O)OCc2ccccc2)c1 | 70 to 71 °C
34 | COC(=O)c1cccc(NC(=O)CSC(C)=O)c1 | 118 to 120 °C
35 | CC(C)(C)N(CC(=O)Nc1n[nH]c(=S)s1)C(=O)C(Cc1ccc(OCc2ccccc2)cc1)NC(=O)OCc1ccccc1 (stereo not given) | 146 °C
36 | CC(C)(C)NS(=O)(=O)c1cc2c(s1)S(=O)(=O)NCC2O (stereo not given) | 144 to 147 °C
37 | Nc1cccc2c1ncc1nc3n(c12)CCCC3 | 275 to 278 °C
38 | COc1ccccc1C(=O)Nc1nc2ccccc2s1 | 196 to 197 °C
39 | CC(=O)OC12Oc3cc(C(C)C)ccc3C1(OC(C)=O)C(=O)c1c(N)cccc12 (stereo not given) | 201 to 203 °C
40 | COc1nc(OC)nc(SC(C(=O)O)C(C)(C)c2ccccc2)n1 (stereo not given) | 115 to 118 °C
41 | N=C(Nc1cc(Cl)cc(NC(=O)/C=C/c2ccccc2Br)c1)c1ccccc1 | 99 to 101 °C
42 | OCCn1c(NC2CCN(Cc3ccccc3)CC2)nc2cccnc21 | 126 °C
43 | CS(=O)(=O)NCCCCn1c(CCO)nc2c(N)nc3cccnc3c21 | 194 to 195 °C
44 | O=C1C2=C(NC3(OCCO3)C(c3ccccc3)=N2)c2ccccc21 | 296 °C
45 | Cc1ccc(C(=O)c2noc(CC(N)=O)n2)cc1 | 169 to 171 °C
46 | CC#CCOc1ccc(S(=O)(=O)C(C(=O)NO)c2ccc(OC)cc2)cc1 (stereo not given) | 190 °C
47 | Cn1cc(-c2ccccc2)c(=O)c(-c2ccc(Br)cc2)c1 | 172 °C
48 | COc1cc(/C=C/C(=O)CC(=O)/C=C/c2ccc(O)cc2Cl)ccc1O | 185 to 192 °C

Row | SMILES | melting point
49 | Cc1cc(N2C(=O)c3ccccc3C2=O)c(C)cc1N=CN(C)C | 170 to 173 °C
50 | COc1cn(-c2cccc(N3CCOCC3)c2F)nc(-c2ccnn2-c2ccccc2)c1=O | 187 to 189 °C
51 | CC(C)Oc1ccc(C(=O)N/C(=C\c2ccc(OC(F)(F)F)cc2)C(=O)NCCO)cc1 | 142 to 146 °C
52 | CCOC(=O)C1=C(C)NC(CN2C(=O)c3ccccc3C2=O)=C(C(=O)OCC)C1c1cccc(Cl)c1 (stereo not given) | 135 to 136 °C
53 | Cc1scc2c1N(C(=O)N1CC3CN(C)CC3C1)c1ccccc1NC2=O (stereo not given) | 220 to 222 °C
54 | CCC(C)NS(=O)(=O)c1ccc(N)c(C(=O)N2CCN(C)CC2)c1 (stereo not given) | 130 to 132 °C
55 | Cc1nnc2n1-c1sccc1C(c1ccccc1[N+](=O)[O-])=NC2 | 260 to 262 °C
56 | COc1c(C)c(C)c(OC)c(C(O)CN)c1C (stereo not given) | 110 to 112 °C
57 | CC(C)n1cc(-c2nc(C(N)=O)c(N)nc2-c2ccccc2)ccc1=O | 240 to 245 °C
58 | CN(c1cccc2cc(-c3ncc(CCC(=O)O)s3)[nH]c12)S(=O)(=O)c1cccs1 | 234 to 235 °C
59 | CC(C)n1nc(-c2sc(C(=O)NC3CCCCC3)nc2-c2ccccc2)ccc1=O | 225 to 226 °C
60 | CC(=O)N1C2=NC(C)(C)N(C)C(=O)N2c2ccccc21 | 159 to 162 °C
61 | CCN(c1nc(C)cc(C(C)Cn2cnnn2)n1)c1ccc(C(C)C)cc1Br (stereo not given) | 127 to 129 °C
62 | ClC1=Nc2cc(Br)ccc2Oc2cscc21 | 196 to 197 °C
63 | NS(=O)(=O)c1nnc(NC(=O)c2cnn3c(C(F)(F)F)cc(-c4ccc(C(F)(F)F)cc4)nc23)s1 | 280 °C
64 | Cc1nc(N2CCCC(Cc3ccc(C(F)(F)F)cc3)C2=O)sc1C(=O)NCc1ccccc1 (stereo not given) | 217 to 218 °C
65 | CON=Cc1ccc2c(c1)ncn2-c1cccc(-c2ccncn2)c1 | 180 to 182 °C
66 | O=P(O)(O)C(O)(Cc1nn(-c2ccc(F)cc2)cc1-c1ccc(Cl)cc1)P(=O)(O)O | 201 to 203 °C
67 | CC(C)[C@H](N)C(=O)OCc1nc2c(N)nc3ccccc3c2n1CC(C)(C)O | 190 to 192 °C
68 | O=C1OCC(CC(F)(F)F)N1c1nc(-c2ccc(Br)cc2)cs1 (stereo not given) | 163 to 165 °C
69 | CCCc1c(OCCCOc2ccc(C(=O)O)cc2Br)ccc(C(C)=O)c1O | 180 to 182 °C
70 | CC(=O)OCC(=O)C12OCOC1CC1C3CCC4=CC(=O)C=CC4(C)C3(Cl)C(O)CC12C (stereo not given) | 244 to 245 °C
71 | Cc1ccc2[nH]cc(C3=C(c4cn(C)c5ccc(C)cc45)C(=O)N(C)C3=O)c2c1 | 110 to 112 °C
72 | Nc1cc(N)c(OCC(F)(F)F)cc1OCC(F)(F)F | 109 °C

Row | SMILES | melting point
73 | CCCCCCCCCCCN(CC)C(=O)N(O)O | 42 to 43 °C
74 | COC(=O)Nc1cc(C(C)(C)C)cc(NC(=O)Nc2ccc(-c3ccc(CN4CCOCC4)nc3)c3ccccc23)c1OC | 192 to 193 °C
75 | CP(C)(=O)CN1CCC(c2nn(-c3ccc(C(F)(F)F)cc3)c3ccccc23)CC1 | 158 to 160 °C
76 | CC(C)(C)OC(=O)NC(Cc1ccccc1)C(=O)Nc1ccc2[nH]cc(CC#N)c2c1 (stereo not given) | 146 to 149 °C
77 | Cc1noc(C)c1-c1ccc(OC2SCC(O)C(O)C2O)cn1 (stereo not given) | 138 °C
78 | O=c1[nH]c2cc(Br)ccc2c(=O)o1 | 280 to 281 °C
79 | OCCCCCCCCCCCN1CCCCC1 | 62 to 65 °C
80 | CCOC(=O)C1=COc2ccc(O)cc2O1 | 160 °C
81 | O=c1c(Cl)c(OCc2ccc(Cl)cc2)cnn1-c1ccc(F)cc1F | 167 °C
82 | C=CCOc1cc(C(=O)O)cc([N+](=O)[O-])c1C(=O)c1ccccc1 | 192 to 193 °C
83 | O=C(NC1CCCCC1)NS(=O)(=O)c1ccc(CCNC(=O)N2CCCCC2=O)cc1 | 197 to 199 °C
84 | COc1cccc2c(Nc3cccc(Br)c3)c(C#N)cnc12 | 210 to 212 °C
85 | CCOC(=O)C1=C(C(=O)OC)CC(=O)C2=C1SC=C1C=CC=CN12 | 143 to 144 °C
86 | CCCCCCCCCCCCCCCCCNC(=O)OCCOCCOC(=O)N(Cc1ccccn1)C(=O)OCC | 57 to 59 °C
87 | COc1cc(OC)c(-c2cccs2)cc1/C=C/C(=O)c1ccc(S(=O)(=O)NCC(=O)O)cc1 | 100 to 101 °C
88 | O=C(Nc1cc(C(F)(F)F)ccc1N1CCc2ccccc21)c1ccccc1 | 114 to 119 °C
89 | CC12CCC3C(CCC4CC(O)CCC43C)C1CC=C2c1cccnc1 (stereo not given) | 198 to 199 °C
90 | Cc1oc(-c2ccco2)nc1COc1ccc(COc2nn(Cc3ccccc3)cc2C(N)=O)cc1 | 139 to 140 °C
91 | Cc1cc(C(=O)OC2CC3C(=O)NC4(C(=O)NS(=O)(=O)C5CC5)CC4C=CCCCCCC(NC(=O)OC(C)(C)C)C(=O)N3C2)no1 (stereo not given) | 157 to 159 °C
92 | CN(C(=O)c1cc(=O)n(C)c2ccc(C(O)(c3ccc(Cl)cc3)c3cncn3C)cc12)c1cccc(Cl)c1 (stereo not given) | 218 °C
93 | Cc1cc(OCc2nc(-c3ccc(C(F)(F)F)cc3)no2)ccc1OC(C)(C)C(=O)O | 170 °C
94 | O=C(CNc1ccccc1)Nc1c(Cl)cccc1C(=O)O | 184 to 185 °C
95 | CC(c1cccc(C#N)n1)C(O)(Cn1cncn1)c1ccc(F)cc1F (stereo not given) | 144 to 146 °C
